Source: patent US9353082B2, “Pharmaceutical compounds” (BIAL—PORTELA & CA, S.A., priority 2008, dated 2016)
Where a name gives a salt, the structure may show the parent alone.

Target: T1, FAAH (Rattus norvegicus, UniProt P97612)
T1 construct: Frozen brains (without cerebellum) from Wistar rats were used; from tissue; host or cells: Wistar rat brain (without cerebellum), washed membrane pellets
T1 sequence (P97612 1-579): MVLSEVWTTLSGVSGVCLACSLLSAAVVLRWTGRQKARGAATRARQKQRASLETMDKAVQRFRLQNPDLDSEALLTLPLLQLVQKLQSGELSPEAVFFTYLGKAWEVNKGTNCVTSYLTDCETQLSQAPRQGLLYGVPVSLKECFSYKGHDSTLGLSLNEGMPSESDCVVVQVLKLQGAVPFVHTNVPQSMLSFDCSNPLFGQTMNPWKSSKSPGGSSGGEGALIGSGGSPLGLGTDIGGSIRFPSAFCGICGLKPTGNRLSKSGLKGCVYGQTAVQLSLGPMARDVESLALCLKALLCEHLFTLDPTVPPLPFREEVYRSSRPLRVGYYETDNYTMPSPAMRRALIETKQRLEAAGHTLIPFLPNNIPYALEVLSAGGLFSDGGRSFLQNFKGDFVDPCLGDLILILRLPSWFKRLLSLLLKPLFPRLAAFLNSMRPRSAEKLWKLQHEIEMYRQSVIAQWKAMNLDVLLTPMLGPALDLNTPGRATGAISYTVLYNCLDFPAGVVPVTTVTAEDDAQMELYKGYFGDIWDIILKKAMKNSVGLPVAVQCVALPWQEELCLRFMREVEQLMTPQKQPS
Assay: In vitro FAAH activity in rat brain membranes, 3H-AEA substrate, % of control
Assay type: biochemical, Wistar rats
Details: low value = strong inhibitor; for In Vitro FAAH activity, 10 uM: 10 uM test compound; for In Vitro FAAH activity, 100 nM: 100 nM test compound
Description: 3. Biological Efficacy of Compounds of the Invention The in vitro test was performed according to the protocol described below. The controls for both in vitro and in vivo were the reaction mix minus the test compounds. Therefore, a low value in Table 1 below for the test compounds indicates a strong inhibitor.
The in vitro pharmaceutical FAAH activity was determined according to the following method:
Frozen brains (without cerebellum) from Wistar rats were used, and each brain was homogenized in 15 ml 1 mM MgCL2, […] HEPES pH 7.0 with Potter Elvejhem (8 strokes at 500 rpm). Homogenates were centrifuged for 20 min at 36000 g at 4° C. (Beckman, 70Ti rotor). Pellets were resuspended in 15 ml of the same buffer and centrifuged under the same conditions. Pellets were resuspended in 15 ml of the same buffer and incubated for 15 min at 37° C. after which they were centrifuged for 20 min at 36000 g at 4° C. Each pellet was then resuspended in 15 ml 3 mM MgCl2, 1 mM EDTA, 50 mM Tris pH 7.4 and protein determined with BioRad Protein Assay (BioRad) using a standard curve of BSA (50-250 μg/ml). The membrane suspensions were aliquoted and stored at −80° C.
The FAAH activity was determined using AEA (labelled with 3H in the ethanolamine part of the molecule) as substrate and measuring the 3H-ethanolamine formed. Reaction mix (total volume of 200 up contained: 2 μM AEA (2 μM AEA+5 nM 3H-AEA), 0.1% fatty acid free BSA, 5 μg protein, in 1 mM EDTA, 10 mM Tris pH 7.6 and 10 μM or 0.1 μM compounds. Stock solutions of the compounds to test (10 mM) were prepared in 100% DMSO and the DMSO concentration in the assay was 0.1%. After a 15 min preincubation period at 37° C., reaction was started by the addition of the substrate solution ([…]). Reaction was carried out for 10 min before termination by the addition of 400 μl activated charcoal suspension (8 g charcoal in 32 ml 0.5 M HCl in continuous agitation). After a 30 min incubation period at room temperature with agitation, charcoal was sedimented by centrifugation in microfuge (10 min at 13000 rpm). 200 μl of the supernatant were added to 800 μl Optiphase Supermix scintillation cocktail previously distributed in 24-well plates. Counts per minute (cpm) were determined in Microbeta TriLux scintillation counter (10 min counting or until s=2).
In each assay blanks (no protein, usually below 200 cpm) and controls (no compound) were present. The results are reported in Table 1 as % of control after blank subtraction.

In Vitro FAAH activity, 10 uM	In Vitro FAAH activity, 100 nM	Structure (SMILES)
62.6 % of control	–	O=C(N1CCOCC1)n1ccnc1 [Compound 1, (1H-imidazol-1-yl)(morpholino)methanone]
11.7 % of control	–	CN(C(=O)n1ccnc1)c1ccccc1 [Compound 2, N-methyl-N-phenyl-1H-imidazole-1-carboxamide]
4.8 % of control	–	O=C(N1CCOCC1)n1cnc(-c2ccccc2)c1 [Compound 3, morpholino(4-phenyl-1H-imidazol-1-yl)methanone]
91.3 % of control	–	O=C(Nc1ccccc1)n1ccc(-c2ccccc2)n1 [Compound 5, N,3-diphenyl-1H-pyrazole-1-carboxamide]
91.1 % of control	–	COc1ccc(NC(=O)n2ccc(-c3ccccc3)n2)cc1 [Compound 6, N-(4-methoxyphenyl)-3-phenyl-1H-pyrazole-1-carboxamide]
0 % of control	17 % of control	CN(C(=O)n1cncn1)c1ccccc1 [Compound 7, N-methyl-N-phenyl-1H-1,2,4-triazole-1-carboxamide]
13.2 % of control	–	CN(C(=O)n1cccn1)c1ccccc1 [Compound 8, N-methyl-N-phenyl-1H-pyrazole-1-carboxamide]
78.6 % of control	–	O=C(Nc1ccccc1)n1cccn1 [Compound 9, N-phenyl-1H-pyrazole-1-carboxamide]
55 % of control	–	O=C(Nc1ccc(Oc2ccccc2)cc1)n1ccc(-c2ccccc2)n1 [Compound 10, N-(4-phenoxyphenyl)-3-phenyl-1H-pyrazole-1-carboxamide]
82.6 % of control	–	O=C(Nc1ccc(OCc2ccccc2)cc1)n1ccc(-c2ccccc2)n1 [Compound 11, N-(4-(benzyloxy)phenyl)-3-phenyl-1H-pyrazole-1-carboxamide]
86 % of control	–	CN(C(=O)n1ccc(-c2ccccc2)n1)c1ccccc1 [Compound 12, N-methyl-N,3-diphenyl-1H-pyrazole-1-carboxamide]
89.7 % of control	–	O=C(N1CCOCC1)n1ccc(-c2ccccc2)n1 [Compound 13, morpholino(3-phenyl-1H-pyrazol-1-yl)methanone]
66.9 % of control	103.8 % of control	O=C(Nc1ccc(-c2ccccc2)cc1)n1ccc(-c2ccccc2)n1 [Compound 15, N-(biphenyl-4-yl)-3-phenyl-1H-pyrazole-1-carboxamide]
65 % of control	–	COc1ccc(N(C)C(=O)n2cnc(-c3ccccc3)c2)cc1 [Compound 17, N-(4-methoxyphenyl)-N-methyl-4-phenyl-1H-imidazole-1-carboxamide]
67.9 % of control	–	CN(C(=O)n1cnc2ccccc21)c1ccccc1 [Compound 18, N-methyl-N-phenyl-1H-benzo[d]imidazole-1-carboxamide]
97.3 % of control	–	O=C(Nc1ccccc1)n1ccc(-c2ccc(-c3ccccc3)cc2)n1 [Compound 20, 3-(biphenyl-4-yl)-N-phenyl-1H-pyrazole-1-carboxamide]
79.1 % of control	–	O=C(N1CCOCC1)n1ccc(-c2cccnc2)n1 [Compound 21, morpholino(3-(pyridin-3-yl)-1H-pyrazol-1-yl)methanone hydrochloride]

In Vitro FAAH activity, 10 uM	In Vitro FAAH activity, 100 nM	Structure (SMILES)
95.8 % of control	–	COc1cccc(NC(=O)n2ccc(-c3ccc(-c4ccccc4)cc3)n2)c1 [Compound 22, 3-(biphenyl-4-yl)-N-(3-methoxyphenyl)-1H-pyrazole-1-carboxamide]
93 % of control	–	COc1ccc(NC(=O)n2ccc(-c3ccc(-c4ccccc4)cc3)n2)cc1 [Compound 23, 3-(biphenyl-4-yl)-N-(4-methoxyphenyl)-1H-pyrazole-1-carboxamide]
22.9 % of control	–	CN(C(=O)n1ccc(-c2cccnc2)n1)c1ccccc1 [Compound 24, N-methyl-N-phenyl-3-(pyridin-3-yl)-1H-pyrazole-1-carboxamide]
99 % of control	–	CN(C(=O)n1ccc(-c2ccc(-c3ccccc3)cc2)n1)c1ccccc1 [Compound 25, 3-(biphenyl-4-yl)-N-methyl-N-phenyl-1H-pyrazole-1-carboxamide]
92.6 % of control	–	CN(C(=O)n1ccnc1-c1ccccc1)c1ccccc1 [Compound 26, N-methyl-N,2-diphenyl-1H-imidazole-1-carboxamide]
0.2 % of control	71.4 % of control	CN(C(=O)n1cnc(-c2ccc(Cl)cc2)c1)c1ccccc1 [Compound 27, 4-(4-chlorophenyl)-N-methyl-N-phenyl-1H-imidazole-1-carboxamide]
0.7 % of control	85.1 % of control	COc1ccc(-c2cn(C(=O)N(C)c3ccccc3)cn2)cc1 [Compound 28, 4-(4-methoxyphenyl)-N-methyl-N-phenyl-1H-imidazole-1-carboxamide]
0.1 % of control	72.5 % of control	CN(C(=O)n1cnc(-c2ccccc2F)c1)c1ccccc1 [Compound 30, 4-(2-fluorophenyl)-N-methyl-N-phenyl-1H-imidazole-1-carboxamide]
0 % of control	69 % of control	COc1cccc(-c2cn(C(=O)N(C)c3ccccc3)cn2)c1 [Compound 31, 4-(3-methoxyphenyl)-N-methyl-N-phenyl-1H-imidazole-1-carboxamide]
103.1 % of control	–	CN(C(=O)n1cnc(-c2ccc(-c3ccccc3)cc2)c1)c1ccccc1 [Compound 35, 4-(biphenyl-4-yl)-N-methyl-N-phenyl-1H-imidazole-1-carboxamide]
5 % of control	–	COc1ccc(-c2cn(C(=O)N(C)c3ccc(F)cc3)cn2)cc1 [Compound 36, N-(4-fluorophenyl)-4-(4-methoxyphenyl)-N-methyl-1H-imidazole-1-carboxamide]
51.7 % of control	–	O=C(N1CCCc2ccccc21)n1cnc(-c2ccccc2)c1 [Compound 37, (3,4-dihydroquinolin-1(2H)-yl)(4-phenyl-1H-imidazol-1-yl)methanone]
0 % of control	83.9 % of control	CN(C(=O)n1cnc(-c2ccc(O)cc2)c1)c1ccccc1 [Compound 38, 4-(4-hydroxyphenyl)-N-methyl-N-phenyl-1H-imidazole-1-carboxamide]
0.1 % of control	88 % of control	CN(C(=O)n1cnc(-c2ccc(Cl)cc2)c1)c1ccc(F)cc1 [Compound 43, 4-(4-chlorophenyl)-N-(4-fluorophenyl)-N-methyl-1H-imidazole-1-carboxamide]
–	97.8 % of control	O=C(N1CCCc2ccccc21)n1cnc(-c2ccc(F)cc2)c1 [Compound 44, (3,4-dihydroquinolin-1(2H)-yl)(4-(4-fluorophenyl)-1H-imidazol-1-yl)methanone]
–	83 % of control	CN(C(=O)n1cnc(-c2ccccc2F)c1)c1ccc(F)cc1 [Compound 45, 4-(2-fluorophenyl)-N-(4-fluorophenyl)-N-methyl-1H-imidazole-1-carboxamide]
